According to paper PMC4811675 (Cancer cell, 2016):
Where a SMILES comes first, the peptide text is derived from it. The star is where a group is joined. Cbz = O=C(OCc1ccccc1)*

Key:
[1] = system: c-Myc; assay: c-Myc transcription, turnover and NEDD4 expression in MCF-7 cells; assay type: cell-based, human
[2] = system: MDA-MB-231 human breast cancer xenograft; assay: MDA-MB-231 xenograft model in immunocompromised mice; assay type: in vivo
[3] = system: c-Myc; assay: c-Myc protein level in MCF-7 cells; assay type: cell-based, human; conditions: 25 µM
[4] = system: BT-549; assay: NCI-60 cell line screening, BT-549; assay type: cell-based, human; conditions: 10 µM TM
[5] = system: MDA-MB-231 cells; assay: Cell viability assay; assay type: cell-based, human; conditions: read-out: IC50 cell viability; 72 hr
[6] = system: NCI-60 panel of human cancer cell lines; assay: NCI-60 cell line screening; assay type: cell-based; conditions: single dose of 10 µM, 24 hr
[7] = system: c-Myc; assay: c-Myc protein level in BT-549 cells; assay type: cell-based, human; conditions: 25 µM
[8] = system: MCF-7 cells; assay: Cell cycle distribution and β-galactosidase senescence staining in MCF-7 cells; assay type: cell-based, human; conditions: 25 µM
[9] = system: MCF-7, MDA-MB-468 and MDA-MB-231; assay: Cell viability assay; assay type: cell-based, human; conditions: 72 hr, up to 50 µM
[10] = system: MMTV-PyMT mammary tumors; assay: MMTV-PyMT mammary tumor model; assay type: in vivo, mice
[11] = system: MCF-7 cells; assay: Soft agar colony formation assay; assay type: cell-based, human; conditions: 25 µM in ethanol
[12] = system: MCF-10A and HME1; assay: Cell viability assay; assay type: cell-based, human; conditions: 72 hr, compared with malignant cells
[13] = Detection of TM in mouse serum, fat and tumor tissues by mass spectrometry; assay type: in vivo, mice; conditions: IP administration
[14] = target: T1, SIRT3 (Homo sapiens, UniProt Q9NTG7); assay: HPLC-based sirtuin inhibition assay, SIRT3; assay type: biochemical; conditions: at 200 µM
T1 sequence (Q9NTG7 1-399): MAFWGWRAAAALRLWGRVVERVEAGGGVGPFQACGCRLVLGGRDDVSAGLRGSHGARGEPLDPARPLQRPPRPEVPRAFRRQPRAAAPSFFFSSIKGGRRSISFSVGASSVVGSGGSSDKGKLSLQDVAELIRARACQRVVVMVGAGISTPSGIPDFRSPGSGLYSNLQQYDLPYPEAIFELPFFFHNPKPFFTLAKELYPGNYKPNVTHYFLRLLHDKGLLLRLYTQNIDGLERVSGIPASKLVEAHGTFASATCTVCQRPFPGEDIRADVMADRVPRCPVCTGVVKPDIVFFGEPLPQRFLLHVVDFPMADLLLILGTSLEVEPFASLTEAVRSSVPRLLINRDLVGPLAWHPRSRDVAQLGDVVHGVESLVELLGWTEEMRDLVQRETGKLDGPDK

[15] = 30 days treatment, compared with vehicle
[16] = 30 days treatment, relative to vehicle

Q: Which results are given for `CCCCCCCCCCCCCC(=S)NCCCCC(NC(=O)OCc1ccccc1)C(=O)Nc1ccccc1` (centres unmarked) [TM]?
A: NEDD4 expression ([1]; MCF-7 and K562 cells, 25 µM TM): up-regulated by TM at the transcriptional level; half-life of c-Myc ([1]; MCF-7 cells, 25 µM 4 hr then CHX): shortened; c-Myc mRNA level ([1]; MCF-7 cells, 25 µM, RT-PCR): not affected; body weight ([2]; 1.5 mg TM daily, 30 days): no significant weight loss; toxicity in mice ([2]; 1.5 mg TM daily, 30 days): did not cause significant toxicity; tumor growth ([2]; 1.5 mg TM in 50 µL DMSO daily, IT or IP, 30 days, versus vehicle): significantly inhibited tumor growth; acetyl-α-tubulin level in xenograft tumors [2, 15]: moderately but statistically significantly increased; Ki-67+ cells in tumors [2, 16]: significant decrease in Ki-67^+ cells; c-Myc protein level [3]: decreased c-Myc protein level in a time-dependent manner; viability [4]: ~100%; IC50 [5]: 34 µM; cell lines inhibited by >50% [6]: 36/56; c-Myc protein abundance [7]: did not have a significant effect; cell cycle distribution ([8]; 0-72 hr, flow cytometry): pronounced increase in cells arrested in G0/G1 phase; cellular senescence by β-galactosidase staining ([8]; 5 days): significant cellular senescence; inhibition of cell viability [9]: greater inhibition of cell viability; acetyl-α-tubulin level in tumors [10, 15]: modest but statistically significant increase; proliferation of tumor cells by Ki-67 staining [10, 16]: significant decrease in proliferation of tumor cells; mean latency to tumor onset ([10]; daily IP 1.5 mg TM in 50 µL DMSO, control group 48 days): 54 days; tumor-free survival ([10]; daily IP 1.5 mg TM, compared with vehicle): significantly prolonged; anchorage-independent growth (soft agar colony formation) [11]: significantly inhibited; sensitivity of cell viability to TM [12]: much less sensitive; TM content in abdominal fat [13]: significant amount of TM accumulated in abdominal fat; TM content in tumors [13]: reached the tumors; inhibition of SIRT3 [14]: did not inhibit

Q: Which “effect on TM-induced down-regulation of c-Myc” value ([1]; MCF-7 cells, TM 25 µM 4 hr then MG132 10 µM 2 hr) does the source give for `CC(C)C[C@@H](C=O)NC(=O)[C@H](CC(C)C)NC(=O)[C@H](CC(C)C)NC(=O)OCc1ccccc1` [MG132, reference compound] (Cbz-Leu-Leu-Leu-aldehyde) here?
A: The value was “prevented the TM-induced down-regulation of c-Myc”.
